{"source": "patent US11365202B2", "about": "“Antimalarial compounds, process for preparation and their use for drug resistant malaria” (Council of Scientific and Industrial Research, priority 2018, dated 2022)", "key": {"P. falciparum 7G8": {"tested_on": "P. falciparum 7G8", "assay": "P. falciparum growth inhibition assay, 7G8 strain", "format": "cell-based", "conditions": "Plasmodium falciparum", "description": "(§1) P. falciparum strain 3D7, Dd2 and 7G8 were cultured in RPMI media (Invitrogen) supplemented with 0.5% albumax and 4% haematocrit using a protocol described previously [Trager and Jensen (Science,1976; 193:673-675)]. Cultures were synchronized by repeated sorbitol treatment following Lambros and Vanderberg (J Parasitol; 1979; 65:418-420). Each growth inhibition assay was performed in triplicate and the experiment was repeated twice. Each well contained 0.5 ml of complete media [RPMI (invitrogen) with 0.5% albumax], 4% haematocrit and the parasitaemia adjusted to ˜1%; the compound added to the parasite cultures to desired final concentrations (0-100 µM) and same amount of solvent (DMSO) was added to the control wells. The cultures were allowed to grow further for 48 h. Parasite growth was assessed by DNA fluorescent dye-binding assay using SYBR green (Sigma) following Smilkstein et al (Antimicrob Agents Chemother.; 2004, 48, 1803-1806). • f) In Vitro Toxicity Assay on CHO Cells"}, "P. falciparum Dd2": {"tested_on": "P. falciparum Dd2", "assay": "P. falciparum growth inhibition assay, Dd2 strain", "format": "cell-based", "conditions": "Plasmodium falciparum", "description": "as §1"}, "A549 human cells": {"tested_on": "A549 human cells", "assay": "In vitro toxicity on mammalian cell culture", "format": "cell-based", "conditions": "for EC50: Homo sapiens, A549, in vitro toxicity"}, "P. falciparum 3D7": {"tested_on": "P. falciparum 3D7", "assay": "P. falciparum growth inhibition assay, 3D7 strain", "format": "cell-based", "conditions": "Plasmodium falciparum, read-out: EC50 on P. falciparum 3D7", "description": "as §1"}, "P. berghei": {"tested_on": "P. berghei", "assay": "In vivo parasiticidal assay with P. berghei mice malaria model", "conditions": "for protection in treated group of mice: 12.5 mg/kg of body weight; for Complete Protection - Mice with complete parasite clearance / Survival after treatment: 4 doses of 12.5 mg/Kg of body weight, infected BALB/c mice", "description": "Five groups of female BALB/c mice, 6-8 weeks of age (four mice/group) were used for testing the in vivo parsiticidal and protective efficacy of different drug treatments. Mice were injected IP with 1×10^6 P. berghei infected erythrocytes. The drug treatment was initiated 5 days after inducing parasitemia; mice in a group were given 4 doses of a compound at 12.5 mg/Kg of body weight. Control mice were given solvent alone. The parasitemia was assessed everyday in thin smears of Giemsa stained RBCs from tail blood of each mouse, by counting parasitized erythrocytes in more than 10,000 erythrocytes. Time of death of the mice in each group was also monitored."}, "[1]": {"conditions": "7G8, read-out: EC50 on P. falciparum 7G8"}, "[2]": {"conditions": "DD2, read-out: EC50 on P. falciparum Dd2"}}, "note": "Where two headings read alike, the source gives them in different places.", "data": [{"smiles": "CCOP(=O)(/C=C/C(NC(=O)[C@H](Cc1ccccc1)NC(=O)[C@H](CO[C@H]1O[C@@H]2O[C@@]3(C)CC[C@H]4[C@H](C)CC[C@@H]([C@H]1C)[C@@]24OO3)NC(=O)OCc1ccccc1)c1ccccc1)OCC", "note": "(mixture of isomers) [Compound 2, Benzyl ((2S)-1-(((2S)-1-(((E)-3-(diethoxyphosphoryl)-1-phenylallyl)amino)-1-oxo-3-phenylpropan-2-yl)amino)-1-oxo-3-(((3R,5aS,6R,8aS,9R,10S,12R,12 aR)-3,6,9-trimethyldeca hydro-12H-3,12-epoxy[1,2]dioxepino[4,3-i]isochromen-10-yl)oxy)propan-2-yl)carbamate]", "values": [{"measurement": "EC50", "setting": "P. falciparum 7G8; [1]", "result": 0.47, "unit": "nM"}, {"measurement": "EC50", "setting": "P. falciparum Dd2; [2]", "result": 1.9, "unit": "nM"}, {"measurement": "EC50", "setting": "A549 human cells", "result": "14600 ± 175", "unit": "nM"}, {"measurement": "EC50", "setting": "P. falciparum 3D7; 3D7, 48 h", "result": 2.7, "unit": "nM"}]}, {"smiles": "CCOP(=O)(/C=C/C(NC(=O)[C@H](CC(C)C)NC(=O)[C@H](CO[C@H]1O[C@@H]2OC3(C)CC[C@H]4[C@H](C)CC[C@@H]([C@H]1C)[C@@]24OO3)NC(=O)OCc1ccccc1)c1ccccc1)OCC", "note": "(stereo in doubt) [Compound 3, Benzyl ((2S)-1-(((2S)-1-(((E)-3-(diethoxyphosphoryl)-1-phenylallyl)amino)-4-methyl-1-oxopentan-2-yl)amino)-1-oxo-3-(((3R,5aS,6R,8aS,9R,10S,12R,12aR)-3,6,9-trimethyldeca hydro-12H-3,12-epoxy[1,2]dioxepino[4,3-i]isochromen-10-yl)oxy)propan-2-yl)carbamate]", "values": [{"measurement": "EC50", "setting": "P. falciparum 7G8; [1]", "result": 0.23, "unit": "nM"}, {"measurement": "EC50", "setting": "P. falciparum Dd2; [2]", "result": 3.5, "unit": "nM"}, {"measurement": "in vitro toxicity on A549 human cells (in words)", "setting": "A549 human cells", "result": "non-toxic"}, {"measurement": "EC50", "setting": "A549 human cells", "result": "3820 ± 161", "unit": "nM"}, {"measurement": "protection in treated group of mice", "setting": "P. berghei", "result": 100, "unit": "%"}, {"measurement": "Complete Protection - Mice with complete parasite clearance", "setting": "P. berghei", "result": "100% of treated mice"}, {"measurement": "Survival after treatment", "setting": "P. berghei", "result": ">60", "unit": "days"}, {"measurement": "EC50", "setting": "P. falciparum 3D7; 3D7, 48 h", "result": 3.3, "unit": "nM"}]}, {"smiles": "CCOP(=O)(/C=C/C(NC(=O)[C@H](CC(C)C)NC(=O)[C@@H]1C[C@@H](O[C@H]2O[C@@H]3OC4(C)CC[C@H]5[C@H](C)CC[C@@H]([C@H]2C)[C@@]35OO4)CN1C(=O)OCc1ccccc1)c1ccccc1)OCC", "note": "(stereo in doubt) [Compound 5, Benzyl (2S,4R)-2-(((2S)-1-(((E)-3-(diethoxyphosphoryl)-1-phenylallyl)amino)-4-methyl-1-oxopentan-2-yl)carbamoyl)-4-(((3R,5aS,6R,8aS,9R,10S,12R,12aR)-3,6,9-trimethyldeca hydro-12H-3,12-epoxy[1,2]dioxepino[4,3-i]isochromen-10-yl)oxy)pyrrolidine-1-carboxylate]", "values": [{"measurement": "EC50", "setting": "P. falciparum 7G8; [1]", "result": 1.2, "unit": "nM"}, {"measurement": "EC50", "setting": "P. falciparum Dd2; [2]", "result": 5.5, "unit": "nM"}, {"measurement": "in vitro toxicity on A549 human cells (in words)", "setting": "A549 human cells", "result": "non-toxic"}, {"measurement": "EC50", "setting": "A549 human cells", "result": "1280 ± 156", "unit": "nM"}, {"measurement": "protection in treated group of mice", "setting": "P. berghei", "result": 100, "unit": "%"}, {"measurement": "Complete Protection - Mice with complete parasite clearance", "setting": "P. berghei", "result": "100% of treated mice"}, {"measurement": "Survival after treatment", "setting": "P. berghei", "result": ">60", "unit": "days"}, {"measurement": "EC50", "setting": "P. falciparum 3D7; 3D7, 48 h", "result": 2.57, "unit": "nM"}]}, {"smiles": "C[C@@H]1CC[C@H]2[C@@H](C)C(=O)O[C@@H]3O[C@@]4(C)CC[C@@H]1[C@]32OO4", "note": "[Artemisinin, reference compound]", "values": [{"measurement": "EC50", "setting": "P. falciparum 7G8; 7G8, Chloroquine and Pyrimethamine resistant strain, in vitro culture, read-out: EC50 on P. falciparum 7G8", "result": "~18", "unit": "nM"}, {"measurement": "EC50", "setting": "P. falciparum Dd2; DD2, Chloroquine, Pyrimethamine and Mefloquine resistant strain, in vitro culture, read-out: EC50 on P. falciparum Dd2", "result": "~15", "unit": "nM"}, {"measurement": "Complete Protection - Mice with complete parasite clearance", "setting": "P. berghei", "result": "0% of treated mice"}, {"measurement": "Survival after treatment", "setting": "P. berghei", "result": "15 to 25", "unit": "days"}, {"measurement": "EC50", "setting": "P. falciparum 3D7; 3D7, chloroquine-sensitive strain, in vitro culture, 48 h", "result": "~27", "unit": "nM"}]}]}
